Among the data in patent US11524963B2, “Substituted pyrazolo[3,4-d]pyrimidines as RET kinase inhibitors” (Array Biopharma Inc., priority 2018, dated 2022) are IC50 values, retold here.

As a reminder, the pIC50 is the negative decadic logarithm of the IC50, by convention in mol/L.

One experiment has as its target RET kinase G810R (Homo sapiens, UniProt P07949, G810R). The experiment can be described thus: RET Enzyme Assay (HTRF KinEASE-TK), G810R. Type of experiment: biochemical. (In general: In TR-FRET formats the signal depends on donor and acceptor labels being close together.)
The next experiment has as its target RET kinase V804M (Homo sapiens, UniProt P07949, V804M). Briefly: RET Enzyme Assay (HTRF KinEASE-TK), V804M. The format is biochemical.
Experiment [1] concerns the target T1, HEK-293 cells expressing a Kif5b-RET fusion protein (Homo sapiens, UniProt P07949).
T1 construct: expressed in transfected cells; host or cells: HEK-293; the other entry of the earlier key: KIF5B (P33176, Kinesin-1 heavy chain)
T1 sequence (P07949 713-1063 limits assumed): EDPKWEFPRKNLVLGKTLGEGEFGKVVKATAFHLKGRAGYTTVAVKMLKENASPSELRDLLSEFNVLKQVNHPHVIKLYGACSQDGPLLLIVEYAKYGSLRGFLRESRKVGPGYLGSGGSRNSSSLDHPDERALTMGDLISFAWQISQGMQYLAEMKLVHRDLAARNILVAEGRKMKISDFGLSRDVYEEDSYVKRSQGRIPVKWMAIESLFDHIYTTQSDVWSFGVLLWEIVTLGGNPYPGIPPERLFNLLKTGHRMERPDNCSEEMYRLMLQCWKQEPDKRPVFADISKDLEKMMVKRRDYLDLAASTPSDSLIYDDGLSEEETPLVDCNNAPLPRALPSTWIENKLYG
The experiment can be described thus: RET Cell Assay (phospho-RET Tyr1062). The format is cell-based. Conditions: 1 hour with compound, phospho-RET(Tyr1062) normalized to GAPDH, read-out: KIF5B-RET pTYR1062 Cell IC50. On the procedure: (§1) The cellular potency of compounds inhibiting RET kinase were determined in HEK-293 cells expressing a Kif5b-RET fusion protein. Briefly, HEK-293 cells expressing a Kif5b-RET fusion protein were plated at 50K cells/well in 96 well poly-D-Lysine coated plates the day prior to the assay. The cells were incubated for 1 hour with test compound in DMEM (Dulbecco's Modified Eagle Medium) at a final DMSO concentration of 0.5%. […] After 1 hour the media was removed, the cells were fixed with 3.8% formaldehyde for 20 min, washed with PBS, and permeabilized for 10 min with 100% methanol. […] All antibodies were diluted in LI-COR Block containing 0.05% Tween. The plates were washed with PBS-0.05% Tween20, 100 μL PBS is added to each well, and the plates were read on a LI-COR Aerius fluorescent plate reader. The phospho-RET signal was normalized to the GAPDH signal. 100 POC (percent of control) was determined using no test compounds and 0 POC was determined using 1 μM of a control inhibitor. The POC values were fit to a 4 parameter logistic curve. The IC50 value is the point where the curve crosses 50 POC.

The target of a further experiment is RET kinase M918T (Homo sapiens, UniProt P07949, M918T). The experiment can be described thus: RET Enzyme Assay (HTRF KinEASE-TK), M918T. Type of experiment: biochemical.
Chain of RET kinase M918T (P07949 29-1114 M918T): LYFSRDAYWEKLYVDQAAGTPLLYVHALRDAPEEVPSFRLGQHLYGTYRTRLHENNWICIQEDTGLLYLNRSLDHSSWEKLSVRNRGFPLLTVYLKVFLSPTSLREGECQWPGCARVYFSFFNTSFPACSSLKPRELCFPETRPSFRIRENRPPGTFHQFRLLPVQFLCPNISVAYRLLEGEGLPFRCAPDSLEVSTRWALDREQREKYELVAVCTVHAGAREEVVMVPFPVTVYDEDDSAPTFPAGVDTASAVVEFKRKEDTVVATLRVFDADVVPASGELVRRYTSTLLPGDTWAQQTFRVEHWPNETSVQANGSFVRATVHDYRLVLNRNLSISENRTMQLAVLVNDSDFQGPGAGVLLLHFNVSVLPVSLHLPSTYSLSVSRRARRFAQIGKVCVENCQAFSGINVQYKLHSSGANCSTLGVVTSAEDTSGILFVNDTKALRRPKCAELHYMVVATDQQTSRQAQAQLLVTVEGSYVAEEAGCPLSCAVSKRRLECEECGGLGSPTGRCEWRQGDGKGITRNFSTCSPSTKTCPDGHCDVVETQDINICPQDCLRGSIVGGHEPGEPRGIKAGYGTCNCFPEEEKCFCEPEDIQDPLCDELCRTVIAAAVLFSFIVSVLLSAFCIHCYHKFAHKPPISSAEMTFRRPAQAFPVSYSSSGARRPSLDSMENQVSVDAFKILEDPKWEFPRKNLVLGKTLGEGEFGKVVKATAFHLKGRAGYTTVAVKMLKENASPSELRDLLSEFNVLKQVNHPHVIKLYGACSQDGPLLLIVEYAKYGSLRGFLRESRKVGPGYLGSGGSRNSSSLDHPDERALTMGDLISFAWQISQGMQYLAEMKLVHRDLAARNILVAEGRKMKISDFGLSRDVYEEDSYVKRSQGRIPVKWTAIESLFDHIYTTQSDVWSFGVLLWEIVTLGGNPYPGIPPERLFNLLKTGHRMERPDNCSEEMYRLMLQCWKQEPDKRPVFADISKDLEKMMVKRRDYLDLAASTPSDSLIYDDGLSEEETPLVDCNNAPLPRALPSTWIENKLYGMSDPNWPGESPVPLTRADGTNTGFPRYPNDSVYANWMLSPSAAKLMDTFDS
Experiment [2] deals with T2, HEK-293 cells expressing a G810R mutant RET Kif5b-RET fusion protein (Homo sapiens, UniProt P07949, G810R).
T2 construct: expressed in transfected cells; host or cells: HEK-293; the other entry of the earlier key: KIF5B (P33176, Kinesin-1 heavy chain)
T2 sequence (P07949 713-1063 G810R limits assumed): T1 sequence (P07949 713-1063 limits assumed) with G98R
The experiment can be described thus: RET G810R Mutant Cell Assay (phospho-RET Tyr1062). The format is cell-based. Conditions: 1 hour with compound, phospho-RET(Tyr1062) normalized to GAPDH. On the procedure:
RET G810R and G810S Mutant Cell Assay
as §1, with “expressing a G810R or G810S mutant RET Kif5b-RET fusion” for “expressing a Kif5b-RET fusion”, “μL PBS was added to” for “μL PBS is added to”, “POC values are fit to” for “POC values were fit to”

In a further experiment the target is RET kinase Wild Type (Homo sapiens, UniProt P07949). Briefly: RET Enzyme Assay (HTRF KinEASE-TK), Wild Type. Type of experiment: biochemical.
Chain of RET kinase Wild Type (P07949 29-1114): as the sequence (P07949 29-1114 M918T) above, with T890M counted along it
Another experiment concerns the target RET kinase G810S (Homo sapiens, UniProt P07949, G810S). The experiment can be described thus: RET Enzyme Assay (HTRF KinEASE-TK), G810S. Type of experiment: biochemical.

Numbering of substitutions follows the chain as printed. pIC50: −log10 of the molar value.

Chain of RET kinase G810S (P07949 29-1114 G810S): as the sequence (P07949 29-1114 M918T) above, with G782S, T890M counted along it
Chain of RET kinase G810R (P07949 29-1114 G810R): as the sequence (P07949 29-1114 M918T) above, with G782R, T890M counted along it
Chain of RET kinase V804M (P07949 29-1114 V804M): as the sequence (P07949 29-1114 M918T) above, with V776M, T890M counted along it

For the molecule `CC(C)n1nc(-c2noc(C3CC3)c2C2CCOCC2)c2c(N)ncnc21` [Example 17, 3-(5-cyclopropyl-4-(tetrahydro-2H-pyran-4-yl)isoxazol-3-yl)-1-isopropyl-1H-pyrazolo[3,4-d]pyrimidin-4-amine], the pIC50 against RET kinase G810R was 8.66; at RET kinase V804M, 8.12; in experiment [1] it was 7.17; at RET kinase M918T, 9.10; in experiment [2] it was 6.58; against RET kinase Wild Type, 9.15. The pIC50 at RET kinase G810S is 8.43.
Turning to `CC(C)n1nc(-c2noc(C3CC3)c2-c2ccn(C)n2)c2c(N)ncnc21` [Example 2, 3-(5-cyclopropyl-4-(1-methyl-1H-pyrazol-3-yl)isoxazol-3-yl)-1-isopropyl-1H-pyrazolo[3,4-d]pyrimidin-4-amine], the pIC50 is 8.36 against RET kinase G810R; 8.68 against RET kinase V804M; 7.12 in experiment [1]; 8.96 at RET kinase M918T; 6.61 in experiment [2]; 8.92 at RET kinase Wild Type. On RET kinase G810S, this molecule showed a pIC50 of 8.36.
As for `CC(C)n1nc(-c2noc(C3CC3)c2C2=CCC(C)(O)CC2)c2c(N)ncnc21` (stereo not drawn) [Example 15, 4-(3-(4-amino-1-isopropyl-1H-pyrazolo[3,4-d]pyrimidin-3-yl)-5-cyclopropylisoxazol-4-yl)-1-methylcyclohex-3-en-1-ol], the pIC50 is 8.20 at RET kinase G810R; 8.19 against RET kinase V804M; 7.38 in experiment [1]; 8.80 on RET kinase M918T; 6.58 in experiment [2]; 8.89 on RET kinase Wild Type. The molecule further gave a pIC50 at RET kinase G810S of 8.20.
